Each structure is given as a SMILES string. Inconclusive results and toxic doses are left out.

Experimental findings from PubChem BioAssay AID330 (DTP/NCI, 2004) are described below.

The assay has as its system P388 leukemia ip, CD2F1 mice, survival T/C. As to the kind of experiment: NCI In Vivo Anticancer Drug Screen. Data for tumor model P388 Leukemia (intraperitoneal) in CD2F1 (CDF1) mice. The following applies: endpoint: median survival time, higher = longer survival. In outline: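 Mice carrying the transplanted tumor received test compound or vehicle. Survival was recorded in each group, and the value is the treated-group measurement divided by that of the vehicle-treated control group.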

The mark [1] stands for this setting: dose: 50.0 mg/kg/injection, schedule: Q01DX009 (ip), vehicle: saline.
Setting [2] is: dose: 100.0 mg/kg/injection, schedule: Q01DX009 (ip), vehicle: saline.
[3] abbreviates: dose: 200.0 mg/kg/injection, schedule: Q01DX009 (ip), vehicle: saline.
The mark [4] stands for this setting: dose: 60.0 mg/kg/injection, schedule: Q01DX005 (ip), vehicle: saline with Tween-80.
The mark [5] stands for this setting: dose: 120.0 mg/kg/injection, schedule: Q01DX005 (ip), vehicle: saline with Tween-80.
Where [6] appears, read: dose: 240.0 mg/kg/injection, schedule: Q01DX005 (ip), vehicle: saline with Tween-80.
Where [7] appears, read: dose: 50.0 mg/kg/injection, schedule: Q01DX009 (ip), vehicle: saline with Tween-80.
Setting [8] is: dose: 100.0 mg/kg/injection, schedule: Q01DX009 (ip), vehicle: saline with Tween-80.
Where [9] appears, read: dose: 200.0 mg/kg/injection, schedule: Q01DX009 (ip), vehicle: saline with Tween-80.
Setting [10] is: dose: 100.0 mg/kg/injection, schedule: Q01DX001 (ip), vehicle: saline with Tween-80.
The mark [11] stands for this setting: dose: 200.0 mg/kg/injection, schedule: Q01DX001 (ip), vehicle: saline with Tween-80.

For the molecule `O=C(O)c1c[nH]c2cc(OCCc3ccccc3)ccc2c1=O`, the T/C reads like this: under setting [1], 101 % of control; under setting [2], 107 % of control; under setting [3], 107 % of control.

Regarding `CNCC1CCCO1` (stereo not drawn), the T/C runs as follows: (dose: 25.0 mg/kg/injection, schedule: Q04DX003 (ip), vehicle: saline) 100 % of control; (dose: 50.0 mg/kg/injection, schedule: Q04DX003 (ip), vehicle: saline) 100 % of control; (dose: 100.0 mg/kg/injection, schedule: Q04DX003 (ip), vehicle: saline) 100 % of control; (dose: 200.0 mg/kg/injection, schedule: Q04DX003 (ip), vehicle: saline) 99 % of control.

For `O=c1[nH]cnc2cccc(Cl)c12`, the T/C runs as follows: under setting [4], 90 % of control; under setting [5], 90 % of control; under setting [6], 100 % of control.

Turning to `COc1cc2cnccc2cc1O`, the T/C (dose: 6.25 mg/kg/injection, schedule: Q01DX009 (ip), vehicle: water) was 92 % of control; the T/C (dose: 12.5 mg/kg/injection, schedule: Q01DX009 (ip), vehicle: water) is 103 % of control; the T/C (dose: 25.0 mg/kg/injection, schedule: Q01DX009 (ip), vehicle: water) was 98 % of control; the T/C (dose: 50.0 mg/kg/injection, schedule: Q01DX009 (ip), vehicle: water) is 95 % of control; the T/C (dose: 100.0 mg/kg/injection, schedule: Q01DX009 (ip), vehicle: water) is 110 % of control.

Regarding `O=C1C2CC3CC4C(=O)C5CC1C1C2C3C4C51` (stereo not drawn), the T/C is 94 % of control under setting [7], 102 % of control under setting [8] and 97 % of control under setting [9].

For `CC1=NC2=NC(CCCC(=O)N3CCCCC3)=NC3=CC=CC(=N1)N32`, the T/C was 104 % of control (dose: 25.0 mg/kg/injection, schedule: Q01DX009 (ip), vehicle: saline); 101 % of control under setting [1]; 103 % of control under setting [2].

As for `C[C@@H]1CC=C[C@@H](NC(=O)OCc2ccccc2)[C@H]1C=O`, the T/C is, setting by setting: under setting [4], 103 % of control; under setting [5], 99 % of control; under setting [6], 98 % of control.

On to `COc1ccc2c(C)cc(OC)nc2c1`, for which the T/C is 94 % of control under setting [7], 91 % of control under setting [8] and 97 % of control under setting [9].

For the molecule `C[C@@H]1CC[C@]2(C)CC[C@]3(C)C(=CC[C@@H]4[C@@]5(C)CC[C@@H](OC(=O)c6ccc(O)cc6)C(C)(C)[C@@H]5C[C@H](O)[C@]43C)[C@@H]2[C@H]1C(=O)O`, the T/C reads like this: (dose: 0.2 mg/kg/injection, schedule: Q01DX009 (ip), vehicle: saline with Tween-80) 159 % of control; (dose: 12.5 micrograms/kg/injection, schedule: Q01DX009 (ip), vehicle: saline with Tween-80) 117 % of control; (dose: 25.0 micrograms/kg/injection, schedule: Q01DX009 (ip), vehicle: saline with Tween-80) 117 % of control; (dose: 50.0 micrograms/kg/injection, schedule: Q01DX009 (ip), vehicle: saline with Tween-80) 118 % of control; (dose: 400.0 micrograms/kg/injection, schedule: Q01DX009 (ip), vehicle: saline with Tween-80) 163 % of control.

As for `CCCc1c(C(=O)OCC)c(-c2ccccc2)c(CCC)c2c1-c1cccc3cccc-2c13`, the T/C under setting [7] was 99 % of control, the T/C under setting [8] is 95 % of control and the T/C under setting [9] was 92 % of control.

As for `O=C1/C(=C\c2ccccc2O)Cc2ccccc21`, the T/C is, setting by setting: (dose: 50.0 mg/kg/injection, schedule: Q01DX005 (ip), vehicle: Klucel (hydroxypropylcellulose) (HPC)) 107 % of control; (dose: 100.0 mg/kg/injection, schedule: Q01DX005 (ip), vehicle: Klucel (hydroxypropylcellulose) (HPC)) 103 % of control; (dose: 200.0 mg/kg/injection, schedule: Q01DX005 (ip), vehicle: Klucel (hydroxypropylcellulose) (HPC)) 91 % of control.

Turning to `O=C(O)CN1CC(=O)N(c2ccccc2)C1=S`, the T/C under setting [1] is 101 % of control, the T/C under setting [2] is 97 % of control and the T/C under setting [3] is 93 % of control.

For `O=C(OC1OC(COCc2ccccc2)C(OCc2ccccc2)C(OCc2ccccc2)C1OCc1ccccc1)c1ccc([N+](=O)[O-])cc1` (stereo not drawn), the T/C runs as follows: under setting [10], 92 % of control; under setting [11], 90 % of control.

`C/C=C1\CN2CCc3c([nH]c4ccccc34)C2CC1C1=CN2c3ccccc3C34CCN5CC6=CCOC1C(C6CC53)C24` (stereo not drawn): the T/C was 95 % of control (dose: 2.38 mg/kg/injection, schedule: Q01DX005 (ip), vehicle: Klucel (hydroxypropylcellulose) (HPC)); 97 % of control (dose: 4.75 mg/kg/injection, schedule: Q01DX005 (ip), vehicle: Klucel (hydroxypropylcellulose) (HPC)); 88 % of control (dose: 9.5 mg/kg/injection, schedule: Q01DX005 (ip), vehicle: Klucel (hydroxypropylcellulose) (HPC)).

Consider `CCCCOC(=O)C(NC(N)=O)SC` (stereo not drawn), for which the T/C by setting is: (dose: 50.0 mg/kg/injection, schedule: Q04DX003 (ip), vehicle: saline with Tween-80) 95 % of control; (dose: 100.0 mg/kg/injection, schedule: Q04DX003 (ip), vehicle: saline with Tween-80) 100 % of control; (dose: 200.0 mg/kg/injection, schedule: Q04DX003 (ip), vehicle: saline with Tween-80) 99 % of control.

For `O=[N+]([O-])c1ccc(N=Nc2ccc(N(CCCl)CCCl)cc2)cc1`, the T/C is 100 % of control (dose: 50.0 mg/kg/injection, schedule: Q04DX003 (ip), vehicle: Klucel (hydroxypropylcellulose) (HPC)); 100 % of control (dose: 100.0 mg/kg/injection, schedule: Q04DX003 (ip), vehicle: Klucel (hydroxypropylcellulose) (HPC)); 106 % of control (dose: 200.0 mg/kg/injection, schedule: Q04DX003 (ip), vehicle: Klucel (hydroxypropylcellulose) (HPC)).

Turning to `OCC1CCC2CCCCC2N1` (stereo not drawn), the T/C reads like this: (dose: 50.0 mg/kg/injection, schedule: Q01DX005 (ip), vehicle: saline) 104 % of control; (dose: 100.0 mg/kg/injection, schedule: Q01DX005 (ip), vehicle: saline) 102 % of control; (dose: 200.0 mg/kg/injection, schedule: Q01DX005 (ip), vehicle: saline) 101 % of control.

`CC(CN(C)C)C(=O)c1ccccc1` (stereo not drawn): the T/C runs as follows: (dose: 6.25 mg/kg/injection, schedule: Q01DX009 (ip), vehicle: saline with Tween-80) 113 % of control; (dose: 12.5 mg/kg/injection, schedule: Q01DX009 (ip), vehicle: saline with Tween-80) 112 % of control; (dose: 25.0 mg/kg/injection, schedule: Q01DX009 (ip), vehicle: saline with Tween-80) 120 % of control; under setting [7], 114 % of control; under setting [1], 99 % of control; under setting [8], 117 % of control. The T/C under setting [2] is 99 % of control.

Regarding `C/C(C/C(C)=N/O)=N/O`, the T/C under setting [1] is 99 % of control, the T/C under setting [2] was 97 % of control and the T/C under setting [3] is 91 % of control.

As for `N#CC(CN1CCOCC1)CN1CCOCC1`, the T/C reads like this: under setting [7], 95 % of control; under setting [8], 101 % of control; under setting [9], 96 % of control.

Turning to `Cc1ccc2cccc(OC(=O)c3cccnc3Oc3ccccc3)c2n1`, the T/C reads like this: under setting [7], 91 % of control; under setting [8], 90 % of control; under setting [9], 90 % of control.

`COc1c(C(C)C)cc2c(c1OC)C13CCCC(C)(C)C1C(OC3=O)C2NC(=O)CCN(C)C` (stereo not drawn): the T/C by setting is: (dose: 25.0 mg/kg/injection, schedule: Q01DX009 (ip), vehicle: Klucel (hydroxypropylcellulose) (HPC)) 97 % of control; (dose: 50.0 mg/kg/injection, schedule: Q01DX009 (ip), vehicle: Klucel (hydroxypropylcellulose) (HPC)) 98 % of control; (dose: 100.0 mg/kg/injection, schedule: Q01DX009 (ip), vehicle: Klucel (hydroxypropylcellulose) (HPC)) 90 % of control.

As for `O=S1(=O)CC(SC2CS(=O)(=O)C2)C1`, the T/C by setting is: under setting [10], 103 % of control; under setting [11], 101 % of control; (dose: 400.0 mg/kg/injection, schedule: Q01DX001 (ip), vehicle: saline with Tween-80) 100 % of control.

For the molecule `CCOC(=O)c1csc(C2OC(COC(=O)c3ccccc3)C(OC(=O)c3ccccc3)C2OC(=O)c2ccccc2)n1` (stereo not drawn), the T/C reads like this: under setting [7], 96 % of control; under setting [8], 95 % of control; under setting [9], 93 % of control.

With `Nn1c(-c2nn[nH]n2)nnc1-c1nn[nH]n1` (tested in a mixture with another compound), the T/C (dose: 50.0 mg/kg/injection, schedule: Q01DX001 (ip), vehicle: Klucel (hydroxypropylcellulose) (HPC)) was 109 % of control; the T/C (dose: 100.0 mg/kg/injection, schedule: Q01DX001 (ip), vehicle: Klucel (hydroxypropylcellulose) (HPC)) is 107 % of control; the T/C (dose: 200.0 mg/kg/injection, schedule: Q01DX001 (ip), vehicle: Klucel (hydroxypropylcellulose) (HPC)) was 103 % of control.
